Source: patent publication US9381252B2, “Nanoparticles for encapsulation of compounds, the production and uses thereof” (UNIVERSIDAD DE NAVARRA, priority 2010, dated 2016)
Read-outs that look alike come from different tables or passages of the source.

Assay: Pharmacokinetic study, bioavailability of folic acid encapsulated in zein nanoparticles
Assay type: in vivo, male Wistar rats
Details: male, Wistar; for bioavailability: serum, rat, read-out: FR (relative bioavailability in percentage); for AUC: read-out: AUC (×10^4) (converted)
Procedure: The pharmacokinetic studies were carried out according to the rules of the ethics committee of the Institution as well as the European laws on experimental animals (86/609/EU). To that end, 20 male Wistar rats with an average weight of 200 g were subjected to normal conditions of light-darkness (12 hours-12 hours), and during the week before the study they were fed with a folic acid-deficient feed (Folic Acid Deficient Diet. TD. 95247. Harlan, USA) and water. Twelve hours before the administration of the formulations, the rats were isolated in metabolic cages without access to food, but with free access to drinking water.
The animals were divided into 4 treatment groups (5 rats per group). Only 1 mL of PBS (Phosphate Buffer, pH 7.4) was orally administered to the first of the group. The two following groups were treated with single oral doses of 1 mg/kg (200 μg/rat) of folic acid (Aditio, Panreac Quimica, Barcelona, Spain) incorporated in zein nanoparticles, or in free form (not encapsulated) dissolved in water. 1 mL of each of the different formulations dispersed in water was administered through a gastroesophageal cannula. Finally, the same dose of free folic acid (1 mg/kg) dissolved in phosphate buffer (PBS) (0.5 mL) was intravenously administered to the fourth group in the saphenous vein. Before the administration of the formulations, blood was extracted from the tail saphenous vein for the purpose of checking the baseline level of the vitamin in each rat. After the administration, a volume of blood of approximately 500 μL was extracted at different times using serum-separating tubes ([…] Microtube 1.1 mL Z-Gel). In all the cases, to prevent the pain of the rats, the extraction was carried out after anesthetizing the animal with inhalational anesthesia (isoflurane:oxygen), checking their vital signs at all times.
The blood volume was subsequently replaced by intraperitoneally administering 500 μL of physiological saline previously heated to the temperature of the animal. During this period, the condition of the animals (mobility, aggressiveness, allergic reactions and temperature) was examined, no significant changes being observed.
The quantification of folic acid in the serum samples, obtained after centrifuging the tubes with blood (6,000 rpm, 20 minutes, 20° C.), was carried out by means of an enzyme immunoassay technique. To that end, an Elisa Kit (Diagnostic automation, INC. Calabasas, Calif. USA) approved by the FDA for the quantitative determination of folic acid in foods, was used. The serum samples were quantified without prior treatment and following the manufacturer's specifications.
In all the studied cases, the differences in the serum folic acid concentrations found by both methods were less than 10%. Therefore, the enzyme immunoassay technique was chosen to quantify all the samples, since it requires a smaller amount of serum for the analysis thereof and is a simpler and quicker technique, the limit of detection of which (2 ng/mL) is much lower than that of the chromatographic technique.
The pharmacokinetic study was divided into three phases. The first of them consisted of intravenously administering 1 mg/kg of folic acid dissolved in phosphate buffer; the second of them consisted of orally administering to the rats 1 mL of phosphate buffer (PBS) to a group of 5 male Wistar rats (the baseline levels of the vitamin over time were studied in this group of rats). Finally, the third phase consisted of orally administering 1 mg/kg of (i) folic acid dissolved in water, (ii) folic acid encapsulated in zein nanoparticles to groups of rats formed by 5 animals.
After the administration, a volume of blood of approximately 500 μL was extracted at different times (0, 1, 2, 3, 8 and 24 hours) and collected in serum-separating tubes, subsequently recovering the blood volume of the animal with an equivalent volume of saline by intraperitoneal route. […]

[1] = rat serum, intravenous route, 1 mg/kg folic acid in PBS, mean ± SD, n = 5
[2] = rat serum, oral route, 1 mg/kg folic acid, mean ± SD, n = 5

For Nc1nc2ncc(CNc3ccc(C(=O)N[C@@H](CCC(=O)O)C(=O)O)cc3)nc2c(=O)[nH]1 [Non-encapsulated FA, folic acid], the bioavailability (intravenous route, 1 mg/kg folic acid in PBS) was 100%, the bioavailability (oral route, 1 mg/kg folic acid, mean ± SD, n = 5) was 36.3 ± 7.2% and the Cmax [1] was 4230 ± 1650 ng/mL. For the same compound, the MRT [1] was 57.8 min, the AUC [1] was 3580 ng·h/mL and the Cmax [2] was 191 ± 41 ng/mL. The MRT [2] was 384 min, the Tmax [2] was 58.8 min and the AUC [2] was 1300 ng·h/mL.
